The source of these data is ChEMBL document CHEMBL1136417, “Siphonols A-E: novel nitric oxide inhibitors from Orthosiphon stamineus of Indonesia” (Bioorg Med Chem Lett, 2003).

This test relates to J774. Description: Inhibitory activity against nitric oxide production in lipopolysaccharide (LPS)-activated macrophage -like J774.1 cell. Type of test: functional, cell-based, Mus musculus.

The IC50 is the concentration that gives 50% inhibition. As for `CC(=O)O[C@H]1[C@@H](OC(C)=O)C(C)(C)C2C[C@@H](OC(C)=O)[C@@]3(O)C(=O)[C@@](C)(C=O)C[C@@H](OC(=O)c4ccccc4)C3[C@@]2(CO)[C@H]1OC(=O)c1ccccc1` (stereo partly drawn), the midpoint of inhibition (Mus musculus, J774), the IC50, lay at 23 µM. Compound `C=C[C@@]1(C)C[C@@H](OC(=O)c2ccccc2)C2[C@]3(CO)C(C[C@@H](O)[C@@]2(O)C1=O)C(C)(C)[C@H](OC(C)=O)[C@H](OC(C)=O)[C@@H]3OC(=O)c1ccccc1` (stereo partly drawn) gave a concentration for half-maximal inhibition (IC50) (Mus musculus, J774) of 17.3 µM. Under “Mus musculus, J774”, `C[C@@H]1C[C@H]2[C@@H]3CCC4=CC(=O)C=C[C@]4(C)[C@@]3(F)[C@@H](O)C[C@]2(C)[C@@]1(O)C(=O)CO` [DEXAMETHASONE] yielded a half-inhibitory concentration (IC50) of 170 µM.

For the compound `C=C[C@@]1(C)C[C@@H](OC(=O)c2ccccc2)C2[C@]3(CO)C(C[C@@H](OC(C)=O)[C@@]2(O)C1=O)C(C)(C)[C@H](OC(C)=O)[C@H](O)[C@@H]3OC(=O)c1ccccc1` (stereo partly drawn), for the setting “Mus musculus, J774”, the 50% inhibitory concentration (IC50) was 22.9 µM. As for `CNC(=N)NCCC[C@H](N)C(=O)O` [TILARGININE], the half-maximal inhibitory concentration (IC50) (Mus musculus, J774) was 26 µM. In the case of `C=C[C@@]1(C)C[C@@H](OC(=O)c2ccccc2)C2[C@]3(COC(C)=O)C(C[C@@H](O)[C@@]2(O)C1=O)C(C)(C)[C@H](OC(C)=O)[C@H](OC(C)=O)[C@@H]3OC(=O)c1ccccc1` (stereo partly drawn), the IC50 (Mus musculus, J774) is 46.5 µM. Turning to POLYMYXIN B, under “j774”, the half-inhibitory concentration (IC50) came to 27.8 µM. On to `C=C[C@@]1(C)C[C@@H](OC(=O)c2ccccc2)C2[C@]3(CO)C(C[C@@H](OC(C)=O)[C@@]2(O)C1=O)C(C)(C)[C@H](OC(C)=O)[C@H](OC(C)=O)[C@@H]3OC(=O)c1ccccc1` (stereo partly drawn), for which the 50% inhibitory concentration (IC50) (Mus musculus, J774) amounted to 10.8 µM.
